{
  "source": "patent US20240295567A1",
  "about": "“HYPOXIA BIOMARKER AND USE THEREOF” (Kyoto University, priority 2021, published 2024)",
  "key": {"[1]": {"test_system": "human prostate cancer-derived cell line DU145", "test": "Viable cell quantification (Cell Count Reagent SF) after gamma ray irradiation with or without recombinant SPINK1 and anti-SPINK1 antibody", "type": "cell-based", "conditions": "recombinant SPINK1 purified protein for 24 hours, 0 or 4 Gy gamma rays, 3 further days, FIG. 43", "description": "Human prostate cancer-derived cell line DU145 was seeded into 96-well cell culture plates (4×10^2 cells per well in a 96-well plate when the dose of the subsequent irradiation is 0 Gy; and 1.2×10^3 cells per well when the dose is 4 Gy) and cultured in a CO2 incubator under a normal oxygen concentration overnight. Thereafter, the cells were cultured in serum-free medium for another 24 hours and then cultured in the presence or absence of recombinant SPINK1 purified protein and in the presence or absence of anti-SPINK1 antibody under normal oxygen conditions for 24 hours. The cells were then irradiated with 0 Gy or 4 Gy gamma rays and cultured under normal oxygen conditions for an additional 3 days. Viable cells were then quantified with Cell Count Reagent SF (produced by Nacalai Tesque, Inc., Catalog #07553-44)."}, "[2]": {"test_system": "human prostate cancer-derived cell line DU145", "test": "Colony formation test after gamma ray irradiation with or without recombinant SPINK1 protein", "type": "cell-based", "conditions": "rSPINK1 100 ng/ml for 24 hours, 0, 2, 4 or 6 Gy gamma rays, cultured 14 days, FIG. 41", "description": "Human prostate cancer-derived cell line DU145 was cultured in serum-free medium under normal oxygen (20%) conditions for 24 hours. The medium was then replaced with normal medium (containing 5% serum) containing a recombinant SPINK1 protein at a final concentration of 100 ng/ml or with normal medium not containing the recombinant SPINK1 protein. The cells were cultured under normal oxygen conditions for 24 hours. The cells were then irradiated with 0, 2, 4, or 6 Gy gamma rays and cultured for 14 days. A colony formation test was then performed."}},
  "data": [
    {"substance": "recombinant SPINK1 protein: recombinant SPINK1 (serine protease inhibitor Kazal type I) protein added to culture medium (DSLGREAKCYNELNGCTKIYDPVCGTDGNTYPNECVLCFENRKRQTSILIQKSGPC; UniProt P00995 24-79, looked up)", "values": [
      {"measurement": "radiation resistance of the cells (viable cells)", "setting": "[1]", "result": "radiation resistance of the cells was induced"},
      {"measurement": "radiation resistance of the cells (colony formation)", "setting": "[2]", "result": "radiation resistance of the cells is induced"}
    ]}
  ]
}
